Laboratory results reported in patent US6214856A, “Indolecarboxamides, pharmaceutical compositions and methods of inhibiting calpain” (SmithKline Beecham Corporation, priority 1999, dated 2001).

System: calpain
Assay: inhibition of calpain in vitro (rate of hydrolysis of synthetic fluorogenic substrates)
Format: biochemical
Details: percent decrease in rate of substrate hydrolysis
Protocol: The assays were performed using synthetic fluorogenic substrates. Inhibition of enzyme activity was calculated on the percent decrease in the rate of substrate hydrolysis in the presence of inhibitor relative to the rate in its absence. IC50s (nM) were calculated.

| IC50 [nM] | SMILES |
| --- | --- |
| 500 | Cn1c(C(=O)N[C@H](C=O)Cc2ccccc2)cc2ccccc21 [Example 1, (S)-N-(1-formyl-2-phenylethyl)-1-methyl-2-indolecarboxamide] |
| 600 | O=C[C@H](Cc1ccccc1)NC(=O)c1cc2ccccc2[nH]1 [Example 2, (S)-N-(1-formyl-2-phenylethyl)-2-indolecarboxamide] |
| 135 | COc1cc2cc(C(=O)N[C@H](C=O)Cc3ccccc3)[nH]c2cc1OCc1ccccc1 [Example 3, (S)-N-(1-formyl-2-phenylethyl)-5-methoxy-6-(phenylmethoxy)-2-indolecarboxamide] |
| 230 | O=C[C@H](Cc1ccccc1)NC(=O)c1cc2cc(Br)ccc2[nH]1 [Example 4, (S)-5-bromo-N-(1-formyl-2-phenylethyl)-2-indolecarboxamide] |
| 600 | CS(=O)(=O)n1c(C(=O)N[C@H](C=O)Cc2ccccc2)cc2ccccc21 [Example 5, (S)-N-(1-formyl-2-phenylethyl)-1-(methylsulfonyl)-2-indolecarboxamide] |
| 500 | O=C[C@H](Cc1ccccc1)NC(=O)c1cc2ccccc2n1Cc1ccccc1 [Example 6, (S)-N-(1-formyl-2-phenylethyl)-1-(phenylmethyl)-2-indolecarboxamide] |
| 600 | COc1ccc2cc(C(=O)N[C@H](C=O)Cc3ccccc3)[nH]c2c1 [Example 7, (S)-N-(1-formyl-2-phenylethyl)-6-methoxy-2-indolecarboxamide] |
| 30 | Cc1c(C(=O)N[C@H](C=O)Cc2ccccc2)n(Cc2ccccc2)c2ccccc12 [Example 8, (S)-N-(1-formyl-2-phenylethyl)-3-methyl-1-(phenylmethyl)-2-indolecarboxamide] |
